According to PubChem BioAssay (NCI):
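In this assay, cells in 96-well plates receive the compound at five concentrations for 48 hours. Endpoints are linearly interpolated between the surrounding concentrations. The concentration for full growth arrest is given as TGI.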

Assays:
Experiment in all cases: NCI anticancer screen, dose series, 48 h
[1] = tested on: SK-MEL-5 melanoma
[2] = tested on: OVCAR-3 ovarian
[3] = tested on: SF-539 CNS
[4] = tested on: MDA-MB-435
[5] = tested on: HL-60(TB) leukemia
[6] = tested on: BT-549 breast
[7] = tested on: SF-268 CNS
[8] = tested on: A549 NSCLC
[9] = tested on: M14 melanoma
[10] = tested on: UO-31 renal
[11] = tested on: RPMI-8226 leukemia
[12] = tested on: SK-OV-3 ovarian
[13] = tested on: SK-MEL-2 melanoma
[14] = tested on: COLO 205 colon
[15] = tested on: CAKI-1 renal
[16] = tested on: IGROV1 ovarian
[17] = tested on: SNB-75 CNS
[18] = tested on: NCI/ADR-RES ovarian
[19] = tested on: MALME-3M melanoma
[20] = tested on: U251 CNS
[21] = tested on: DU-145 prostate
[22] = tested on: NCI-H522 lung
[23] = tested on: A498 renal
[24] = tested on: RXF 393 renal
[25] = tested on: SW-620 colon
[26] = tested on: MDA-N
[27] = tested on: OVCAR-4 ovarian
[28] = tested on: HOP-62 NSCLC
[29] = tested on: PC-3 prostate
[30] = tested on: NCI-H460 lung
[31] = tested on: SNB-19 CNS
[32] = tested on: OVCAR-5 ovarian
[33] = tested on: HCC-2998 colon
[34] = tested on: MCF7 breast
[35] = tested on: OVCAR-8 ovarian
[36] = tested on: CCRF-CEM leukemia
[37] = tested on: HS 578T breast
[38] = tested on: MDA-MB-231 breast
[39] = tested on: T-47D breast
[40] = tested on: HT29 colon
[41] = tested on: UACC-257 melanoma
[42] = tested on: HCT-116 colon
[43] = tested on: EKVX NSCLC
[44] = tested on: SN12C renal
[45] = tested on: UACC-62 melanoma
[46] = tested on: K-562 leukemia
[47] = tested on: SR leukemia
[48] = tested on: SK-MEL-28 melanoma
[49] = tested on: TK-10 renal
[50] = tested on: NCI-H23 lung
[51] = tested on: HCT-15 colon
[52] = tested on: HOP-92 NSCLC
[53] = tested on: LOX IMVI melanoma
[54] = tested on: SF-295 CNS
[55] = tested on: KM12 colon
[56] = tested on: NCI-H226 lung
[57] = tested on: 786-0 renal
[58] = tested on: ACHN renal
[59] = tested on: MOLT-4 leukemia

Measured: TGI

CCOc1ccc2ccc3cccnc3c2n1
58.4 µM: [2]
85.1 µM: [41]
95.2 µM: [12]
76 µM: [23]
62.5 µM: [11]
61.4 µM: [28]
73 µM: [47]
45.8 µM: [34]
75.9 µM: [45]
not listed: [59]
> 100 µM: all other assays above

CC(C)c1cccc(C(=O)NCCN(C)C)c1[N+](=O)[O-]
97.4 µM: [6]
not listed: [11] | [24] | [27] | [43] | [52] | [53]
> 100 µM: all other assays above
